In assay [1] the target is T1, KRas G12C (Homo sapiens, UniProt P01116, C118S/C51S/C80L/G12C).
T1 construct: GDP-loaded K-Ras (1-169) G12C, C51S, C80L, C118S
Briefly: KRas G12C Modification Assay (LCMS detection of covalent adduct). In kind it is binding. The conditions noted are these: 5 μM concentration for 3 hours. As to the method: This Example illustrates that exemplary compounds of the present invention covalently bind to KRas G12C using a LCMS assay to detect a covalent adduct of the exemplary compound and KRAS G12C.
The protein concentration of GDP-loaded K-Ras (1-169) G12C, C51S, C80L, C118S and GTP-loaded K-Ras (1-169) G12C, C51S, C80L, C118S, Q61H was adjusted to 2 μM in K-Ras Assay Buffer (25 mM HEPES, 150 mM NaCl, 5 mM MgCl2, and 10 mM Octyl β-glucopyranoside at pH 7.5). A 10 μL aliquot of each protein solution was transferred to a 384 well microtiter plate. Initial compound stocks were generated at fifty times their desired final assay concentration in DMSO.
Exemplary compounds of formula (I) were diluted 25-fold into K-Ras Assay Buffer to a final of two times their final concentration. A 10 μL aliquot of each diluted compound solution was added to each of the protein solutions in the microtiter plate to initiate reaction. Typical final compound concentrations were 3.0, 5.0 and 25.0 μM. At each time point, the reactions were quenched with 20 μL of a 25 mM acetic acid solution. Usual assay endpoints were 15, 180 and 1440 minutes. Once all reactions were quenched, the plates were heat sealed and the samples were injected into a LC/MS system for data acquisition.
Data collection took place on an Agilent 6520 Q-TOF Accurate Mass Spectrometer. Samples were injected in their liquid phase onto a C-3 reverse phase column to remove assay buffer and prepare the samples for mass spectrometer. The proteins were eluted from the column using an acetonitrile gradient and fed directly into the mass analyzer. Initial raw data analysis took place in Agilent MassHunter software immediately post data acquisition.
Raw data analysis of the intact protein was exclusively a deconvolution of the multiple charge states of each protein in solution using a maximum entropy deconvolution provided in Mass Hunter. To minimize complexity, only the data over limited mass ranges were considered for analysis, with a minimum of one Dalton mass step intervals. The heights of all masses identified during raw data analysis were exported to be further analyzed in Spotfire® data analysis software.
Final data analysis was a multistep process in the Spotfire® data analysis software package. Briefly, each protein mass was calculated as a percent of the total signal of that sample, that percentage was normalized to the percentage of signal of the protein in the absence of reactive compounds. Those normalized signals were reported as normalized percent of control (POC). […] Key: N.D. is not determined.

Assay [2] addresses T2, KRas G12C (Homo sapiens, UniProt P01116, G12C).
T2 construct: NCI-11358 cells (ATCC CRL-5807) express KRas G12C; host or cells: NCI-H358
The experiment in a line: Cellular inhibition of KRas G12C measured by Phospho-ERK in NCI-11358 cells. In kind it is cell-based. The settings on record: NCI-11358 cells (ATCC CRL-5807), 3 hours; read-out: Inhibition (IC50, pERK (Thr202/Tyr204) signal normalized with GAPDH). As to the method:
The cellular inhibition of KRAs G12C by exemplary compounds of the present invention was determined by measuring the amount of a downstream marker of KRas activity, phosphorylated ERK (“Phospho-ERK”).
NCI-11358 cells (ATCC CRL-5807) express KRas G12C and were grown in RPMI medium supplemented with 10% fetal bovine serum, penicillin/streptomycin and 10 mM HEPES. Cells were plated in poly-D-Lysine coated 96-well plates at a concentration of 50,000 cells/well and allowed to attach for 8-12 hours. Diluted compounds were then added at a final concentration of 0.5% DMSO. After 3 hours, the medium was removed, 150 μL of 4% formaldehyde was added and the plates were incubated for 20 minutes. The plates were washed with PBS, and permeabilized using 150 μL of ice cold 100% methanol for 10 minutes. Non-specific antibody binding to the plates was blocked using 100 μL Licor Blocking Buffer (Li-Cor Biotechnology, Lincoln NE) for 1 hour at room temperature. Positive control samples and samples lacking cells were parallel processed with test samples as standards.
The amount Phospho-ERK was determined using an antibody specific for the phosphorylated form of ERK and compared to the amount of GAPDH. Primary antibodies used for detection were added as follows: Phospho-ERK (Cell Signaling cs9101) diluted 1:500 and GAPDH (Millipore MAB374) diluted 1:5000 in Licor block+0.05% Tween 20. The plates were incubated for 2 hours at room temperature. The plates were washed with PBS+0.05% Tween 20.
Secondary antibodies used to visualize primary antibodies were added as follows: Anti-rabbit-680 diluted 1:1000 and Anti-mouse-800 diluted 1:1000 in Licor Block+0.05% Tween 20 and incubated for 1 hour at room temperature. The plates were washed with PBS+0.05% Tween 20. A 100 μL aliquot of PBS was added to each well and the plates were read on a LICOR AERIUS plate reader.
The pERK (Thr202/Tyr204) signal was normalized with the GAPDH signal and percent of DMSO control values were calculated. IC50 values were generated using a 4 parameter fit of the dose response curve. Key: “A”: ≤1 μM, “B”>1 μM and N.D.=not determined.

Where a name gives a salt, the structure may show the parent alone.

Take `C=CC(=O)N1CC(CN2C(=O)COc3cc(-c4c(C)ccc5[nH]ncc45)c(Cl)cc32)C1` (single isomer, unassigned) [Example 10]: the “POC (normalized percent of control, covalent modification of KRas G12C)” value in assay [1] (5 µM) was 53% of control. Moreover, in assay [2], the IC50 is greater than 1000 nM.
As for `C=CC(=O)N1CC(CN2C(=O)COc3cc(-c4c(C)ccc5[nH]ncc45)c(Cl)cc32)C1` (single isomer, unassigned) [Example 11], in assay [1] (5 µM), the “POC (normalized percent of control, covalent modification of KRas G12C)” value is given as 96% of control. In assay [2], the IC50 is greater than 1000 nM.
As to `C=CC(=O)N1CC(CN2C(=O)[C@H](CCN(C)C)Oc3cc(-c4c(C)ccc5[nH]ncc45)c(Cl)cc32)C1` (single isomer, unassigned) [Example 35], in assay [1] (5 µM), the “POC (normalized percent of control, covalent modification of KRas G12C)” value is recorded as 86% of control. In assay [2], the IC50 was no more than 1000 nM.
Take `C=CC(=O)N1CC(CN2C(=O)[C@H](CCN(C)C)Oc3cc(-c4c(C)ccc5[nH]ncc45)c(Cl)cc32)C1` (single isomer, unassigned) [Example 36]: the “POC (normalized percent of control, covalent modification of KRas G12C)” value in assay [1] (5 µM) is on record as 27% of control. For the same compound, the IC50 in assay [2] was greater than 1000 nM.
With `C=CC(=O)N1CC(CN2C(=O)COc3cc(-c4cc(O)cc5ccccc45)c(Cl)cc32)C1` [Example 1, 4-((1-acryloylazetidin-3-yl)methyl)-6-chloro-7-(3-hydroxynaphthalen-1-yl)-2H-benzo[b][1,4]oxazin-3(4H)-one], the “POC (normalized percent of control, covalent modification of KRas G12C)” value in assay [1] is recorded as 104% of control. Besides, in assay [2], the IC50 is no more than 1000 nM.
In the case of `C=CC(=O)N1CC(CN2C(=O)C(CC(C)C)Oc3cc(-c4cc(O)cc5ccccc45)c(Cl)cc32)C1` (stereo not shown) [Example 2, 4-((1-acryloylazetidin-3-yl)methyl)-6-chloro-7-(3-hydroxynaphthalen-1-yl)-2-isobutyl-2H-benzo[b][1,4]oxazin-3(4H)-one], the “POC (normalized percent of control, covalent modification of KRas G12C)” value in assay [1] was 94% of control. Also, the IC50 in assay [2] was greater than 1000 nM.
For `C=CC(=O)N1CC(CN2C(=O)C(C3CCN(C)CC3)Oc3cc(-c4cc(O)cc5ccccc45)c(Cl)cc32)C1` (stereo not shown) [Example 3, 4-((1-acryloylazetidin-3-yl)methyl)-6-chloro-7-(3-hydroxynaphthalen-1-yl)-2-(1-methylpiperidin-4-yl)-2H-benzo[b][1,4]oxazin-3(4H)-one], in assay [1], the “POC (normalized percent of control, covalent modification of KRas G12C)” value is recorded as 91% of control. In assay [2], the IC50 is no more than 1000 nM.
In the case of `C=CC(=O)N1CC(CN2C(=O)C(CN3CCCC3)Oc3cc(-c4cc(O)cc5ccccc45)c(Cl)cc32)C1` (stereo not shown) [Example 4, 4-((1-acryloylazetidin-3-yl)methyl)-6-chloro-7-(3-hydroxynaphthalen-1-yl)-2-(pyrrolidin-1-ylmethyl)-2H-benzo[b][1,4]oxazin-3(4H)-one], the “POC (normalized percent of control, covalent modification of KRas G12C)” value in assay [1] is 104% of control. Besides, in assay [2], the IC50 was no more than 1000 nM.
Regarding `C=CC(=O)N1CC(CN2C(=O)C(CN3CCC(N(C)C)CC3)Oc3cc(-c4cc(O)cc5ccccc45)c(Cl)cc32)C1` (stereo not shown) [Example 5, 4-((1-acryloylazetidin-3-yl)methyl)-6-chloro-2-((4-(dimethylamino)piperidin-1-yl)methyl)-7-(3-hydroxynaphthalen-1-yl)-2H-benzo[b][1,4]oxazin-3(4H)-one], in assay [1], the “POC (normalized percent of control, covalent modification of KRas G12C)” value was 95% of control. Moreover, in assay [2], the IC50 was no more than 1000 nM.
In the case of `C=CC(=O)N1CC(CN2C(=O)COc3c2ccc(-c2cc(O)cc4ccccc24)c3F)C1` [Example 6, 4-((1-acryloylazetidin-3-yl)methyl)-8-fluoro-7-(3-hydroxynaphthalen-1-yl)-2H-benzo[b][1,4]oxazin-3(4H)-one], the “POC (normalized percent of control, covalent modification of KRas G12C)” value in assay [1] was 86% of control. The IC50 in assay [2] is greater than 1000 nM.
For `C=CC(=O)N1CC(CN2C(=O)COc3cc(-c4cc(O)ccc4OC(F)(F)F)c(Cl)cc32)C1` [Example 7, 4-((1-acryloylazetidin-3-yl)methyl)-6-chloro-7-(5-hydroxy-2-(trifluoromethoxy)phenyl)-2H-benzo[b][1,4]oxazin-3(4H)-one], in that order: 96% of control and greater than 1000 nM.
As for `C=CC(=O)N1CC(CN2C(=O)C(CN3CCN(C)CC3)Oc3cc(-c4cc(O)cc5ccccc45)c(Cl)cc32)C1` (stereo not shown) [Example 8, 4-((1-acryloylazetidin-3-yl)methyl)-6-chloro-7-(3-hydroxynaphthalen-1-yl)-2-((4-methylpiperazin-1-yl)methyl)-2H-benzo[b][1,4]oxazin-3(4H)-one bis(2,2,2-trifluoroacetate)], the “POC (normalized percent of control, covalent modification of KRas G12C)” value in assay [1] was 87% of control. The IC50 in assay [2] is no more than 1000 nM.
Taken in the same sequence, the figures for `C=CC(=O)N1CC(CN2C(=O)COc3cc(-c4cc(O)cc5ccccc45)ccc32)C1` [Example 12, 4-((1-acryloylazetidin-3-yl)methyl)-7-(3-hydroxynaphthalen-1-yl)-2H-benzo[b][1,4]oxazin-3(4H)-one] were 94% of control and greater than 1000 nM.
For the compound `C=CC(=O)N1CC(F)(CN2C(=O)COc3cc(-c4cc(O)cc5ccccc45)c(Cl)cc32)C1` [Example 13, 4-((1-acryloyl-3-fluoroazetidin-3-yl)methyl)-6-chloro-7-(3-hydroxynaphthalen-1-yl)-2H-benzo[b][1,4]oxazin-3(4H)-one], the “POC (normalized percent of control, covalent modification of KRas G12C)” value in assay [1] is on record as 93% of control. The IC50 in assay [2] was no more than 1000 nM.
For `C=CC(=O)N1CC(CN2C(=O)CSc3cc(-c4cc(O)cc5ccccc45)ccc32)C1` [Example 14, 4-((1-acryloylazetidin-3-yl)methyl)-7-(3-hydroxynaphthalen-1-yl)-2H-benzo[b][1,4]thiazin-3(4H)-one], in that order: 102% of control and greater than 1000 nM.
Taken in the same sequence, the figures for `C=CC(=O)N1CC(CN2C(=O)COc3cc(-c4c(C)ccc5[nH]cnc45)c(Cl)cc32)C1` [Example 15, 4-((1-acryloylazetidin-3-yl)methyl)-6-chloro-7-(5-methyl-1H-benzo[d]imidazol-4-yl)-2H-benzo[b][1,4]oxazin-3(4H)-one trifluoroacetate salt] were 97% of control and greater than 1000 nM.
With `C=CC(=O)N1CC(CN2C(=O)COc3c2cc(Cl)c(-c2cc(O)cc4ccccc24)c3F)C1` [Example 16, 4-((1-acryloylazetidin-3-yl)methyl)-6-chloro-8-fluoro-7-(3-hydroxynaphthalen-1-yl)-2H-benzo[b][1,4]oxazin-3(4H)-one], in assay [1], the “POC (normalized percent of control, covalent modification of KRas G12C)” value is 100% of control. The IC50 in assay [2] was greater than 1000 nM.

Values taken from patent US11932633B2, “KRas G12C inhibitors” (Mirati Therapeutics, Inc., priority 2018, dated 2024).
